The results in this text go back to patent publication US8410150B2, “Inhibitors of carnitine palmitoyltransferase and treating cancer” (University Health Network, priority 2007, dated 2013).

Structures are written as SMILES.

In the assay the target is T1, human CPT1A (Homo sapiens, UniProt P50416).
T1 construct: made in house; host or cells: Saccharomyces cerevisiae (pESC-trp) or cultured mammalian cells (pCDNA3.1); mitochondrial extract
T1 sequence (P50416 1-773): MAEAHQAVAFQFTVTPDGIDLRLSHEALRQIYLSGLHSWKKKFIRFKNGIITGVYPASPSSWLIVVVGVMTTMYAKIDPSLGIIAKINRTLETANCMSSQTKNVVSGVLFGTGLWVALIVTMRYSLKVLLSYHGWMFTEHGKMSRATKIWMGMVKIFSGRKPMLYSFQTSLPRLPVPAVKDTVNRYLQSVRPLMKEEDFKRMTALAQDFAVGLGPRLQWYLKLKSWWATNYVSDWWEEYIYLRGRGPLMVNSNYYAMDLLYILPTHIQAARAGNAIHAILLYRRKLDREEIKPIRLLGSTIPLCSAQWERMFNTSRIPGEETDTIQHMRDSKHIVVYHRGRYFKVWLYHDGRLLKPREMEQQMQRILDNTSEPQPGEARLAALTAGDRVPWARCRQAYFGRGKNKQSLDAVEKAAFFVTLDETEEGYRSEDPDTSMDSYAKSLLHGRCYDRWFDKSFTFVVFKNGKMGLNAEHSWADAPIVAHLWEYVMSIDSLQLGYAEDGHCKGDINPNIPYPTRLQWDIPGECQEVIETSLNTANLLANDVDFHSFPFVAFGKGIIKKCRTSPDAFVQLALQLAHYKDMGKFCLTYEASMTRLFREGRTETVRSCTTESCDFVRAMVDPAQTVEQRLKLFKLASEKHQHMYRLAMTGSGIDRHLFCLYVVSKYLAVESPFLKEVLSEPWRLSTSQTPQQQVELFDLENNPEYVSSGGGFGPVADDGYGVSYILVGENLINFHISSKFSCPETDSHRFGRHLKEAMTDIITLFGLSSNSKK
Description: Human CPT1A LC/MS assay. Format: biochemical. To be noted: human CPT1A LC/MS assay, dose response format. In outline: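 Mitochondrial extracts (1.6 μg protein) expressing human CPT1A, preincubated 10 min with compound in 20% DMSO, then reacted 10 min at room temperature with 20 μM palmitoyl-CoA, 50 μM L-carnitine (pH 7.5). Palmitoyl carnitine was quantified by LC/MS against a myristoyl carnitine standard; 16-point, 2-fold titrations gave dose response.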
A word on the IC50: it is the concentration that gives 50% inhibition. In turn, `CCCCCCCCCCc1ccc(C(=O)N[C@H](CC(=O)[O-])C[N+](C)(C)C)cc1` [Example S66, (R)-3-(4-decylbenzamido)-4-(trimethylammonio)butanoate] yielded a concentration for half-maximal inhibition (IC50) of at most 1 µM.
Regarding `CCCCCCCCCCOc1ccc(C(=O)N[C@H](CC(=O)O)C[N+](C)(C)C)cc1` [Example S63, (R)-3-(4-(decyloxy)benzamido)-4-(trimethylammonio)butanoate 2,2,2-trifluoroacetate], the IC50 is at most 1 µM.
For the compound `CCCCCCCCc1ccc(NC(=O)N[C@H](CC(=O)[O-])C[N+](C)(C)C)cc1` [Example S7, (R)-3-(3-(4-octylphenyl)ureido)-4-(trimethylammonio)butanoate], the IC50 fell in the range of 1 to 10 µM.
Turning to `CCCCCCCCCCc1ccc(S(=O)(=O)N[C@H](CC(=O)O)C[N+](C)(C)C)cc1` [Example S75, (R)-3-carboxy-2-(4-decylphenylsulfonamido)-N,N,N-trimethylpropan-1-aminium 2,2,2-trifluoroacetate], the concentration for half-maximal inhibition (IC50) lay within 1 to 10 µM.
Take `CCCCCCCOc1ccc(NC(=O)N[C@H](CC(=O)[O-])C[N+](C)(C)C)cc1` [Example S10, (R)-3-(3-(4-(heptyloxy)phenyl)ureido)-4-(trimethylammonio)butanoate]: the half-inhibitory concentration (IC50) is 10 to 100 µM.
Next, `CCCCCCCCCCOc1cccc(C(=O)N[C@H](CC(=O)[O-])C[N+](C)(C)C)c1` [Example S67, (R)-3-(3-(decyloxy)benzamido)-4-(trimethylammonio)butanoate]: 10 to 100 µM.
As to `CCCCCCCCCCCCCCc1ccc(NS(=O)(=O)N[C@H](CC(=O)O)C[N+](C)(C)C)cc1` [Example S90, (R)-3-(N-(4-tetradecylphenyl)sulfamoylamino)-4-(trimethylammonio)-butanoate], the IC50 is at most 1 µM.
As to `CCCCCCCCCCCCc1ccc(NS(=O)(=O)N[C@H](CC(=O)O)C[N+](C)(C)C)cc1` [Example S89, (R)-3-(N-(4-dodecylphenyl)sulfamoylamino)-4-(trimethylammonio)-butanoate], the half-maximal inhibitory concentration (IC50) was at most 1 µM.
